# Test results taken from patent US20220313620A1, “COMPOSITION FOR PREVENTING AND TREATING TAUOPATHIES” (SERVICIO ANDALUZ DE SALUD, priority 2019, published 2022).
# How the values were obtained:
# [1] = tested on: Pyruvate Kinase Liver/RBC (Pklr); assay: Liver pyruvate kinase gene expression (qPCR) after acute oral gavage; assay type: in vivo; details: oral 100 mg/kg, adult male Wistar rats, FIG. 2D
# Procedure: After 18 hours of fasting, D-Pinitol dissolved in water was administered acutely by gavage (100 mg/kg in a first study, and 500 mg/kg in a subsequent study). After administration, the animals were sacrificed in groups at different times (being time 0 the administration of D-Pinitol). For the first study (100 mg/kg), groups of animals were sacrificed at times: 10, 20, 30, 60, 120, 240 and 360 minutes after administration; for the second study (500 mg/kg), animals were sacrificed at times: 60, 120 and 240 minutes after administration. As a control group, a group was administered only with water (by gavage). […]
# Total RNA was extracted from tissue portions of liver (100-300 mg) using the Trizol® method according to the manufacturer's instructions (GIBCO BRL Life Technologies). […] Total RNA was quantified using a spectrophotometer (Nanodrop 1000 Spectrophotometer, Thermo Scientific) to ensure A260/280 ratios of 1.8 to 2.0. […]
# Real-time qPCR was performed following the criteria of the MIQE guidelines (Bustin, S. A. et al. The MIQE guidelines: minimum information for publication of quantitative real-time PCR experiments. Clin Chem. 55,611-622 (2009)). […] For all reference and target gene studies, two independent biologic samples of each experimental condition were evaluated in technical duplicates. […]
# mTOR = assay: Hypothalamic mTOR phosphorylation (western blot) after acute oral gavage; assay type: in vivo; details: oral 500 mg/kg, adult male Wistar rats, hypothalamus, FIG. 3F
# Procedure: After 18 hours of fasting, D-Pinitol dissolved in water was administered acutely by gavage (100 mg/kg in a first study, and 500 mg/kg in a subsequent study). After administration, the animals were sacrificed in groups at different times (being time 0 the administration of D-Pinitol). For the first study (100 mg/kg), groups of animals were sacrificed at times: 10, 20, 30, 60, 120, 240 and 360 minutes after administration; for the second study (500 mg/kg), animals were sacrificed at times: 60, 120 and 240 minutes after administration. As a control group, a group was administered only with water (by gavage). Animals were anesthetized with sodium pentobarbital (50 mg/Kg, i.p.), blood, brain and liver samples were collected. Blood was centrifuged (2100 g for 8 min, 4° C.) and the plasma kept for further analysis. Liver and brain samples were flash-frozen in liquid N2, then stored at −80° C. until further analysis. Brain extract. […] The expression of protein including mTOR (289 kDa) and Adaptin (100 kDa) were analysed by western blot. […] Bands were quantified by densitometric analysis using ImageJ software (Rasband, WS, Image), US National Institutes of Health, Bethesda, Md., USA).
compound,measurement,setting,value
"COC1[C@@H](O)[C@@H](O)C(O)[C@H](O)[C@H]1O (stereo partly drawn) [DPIN, (1S,2S,4S,5R)-6-methoxycyclohexane-1,2,3,4,5-pentol]",expression of Pyruvate Kinase,[1],Inhibition
same,hypothalamic mTOR signaling through its phosphorylation,mTOR,activation
